target: T1, human TLR8 (Homo sapiens, UniProt Q9NR97); test: HEK293-Blue-hTLR-8 cells assay (SEAP reporter, R848 stimulation); type: cell-based; conditions: HEK293-Blue-hTLR8 cells, R848, 20 hrs; read-out: HEK/hTLR8 IC50
T1 construct: host or cells: HEK293 (HEK-Blue)
T1 sequence (Q9NR97 27-1041): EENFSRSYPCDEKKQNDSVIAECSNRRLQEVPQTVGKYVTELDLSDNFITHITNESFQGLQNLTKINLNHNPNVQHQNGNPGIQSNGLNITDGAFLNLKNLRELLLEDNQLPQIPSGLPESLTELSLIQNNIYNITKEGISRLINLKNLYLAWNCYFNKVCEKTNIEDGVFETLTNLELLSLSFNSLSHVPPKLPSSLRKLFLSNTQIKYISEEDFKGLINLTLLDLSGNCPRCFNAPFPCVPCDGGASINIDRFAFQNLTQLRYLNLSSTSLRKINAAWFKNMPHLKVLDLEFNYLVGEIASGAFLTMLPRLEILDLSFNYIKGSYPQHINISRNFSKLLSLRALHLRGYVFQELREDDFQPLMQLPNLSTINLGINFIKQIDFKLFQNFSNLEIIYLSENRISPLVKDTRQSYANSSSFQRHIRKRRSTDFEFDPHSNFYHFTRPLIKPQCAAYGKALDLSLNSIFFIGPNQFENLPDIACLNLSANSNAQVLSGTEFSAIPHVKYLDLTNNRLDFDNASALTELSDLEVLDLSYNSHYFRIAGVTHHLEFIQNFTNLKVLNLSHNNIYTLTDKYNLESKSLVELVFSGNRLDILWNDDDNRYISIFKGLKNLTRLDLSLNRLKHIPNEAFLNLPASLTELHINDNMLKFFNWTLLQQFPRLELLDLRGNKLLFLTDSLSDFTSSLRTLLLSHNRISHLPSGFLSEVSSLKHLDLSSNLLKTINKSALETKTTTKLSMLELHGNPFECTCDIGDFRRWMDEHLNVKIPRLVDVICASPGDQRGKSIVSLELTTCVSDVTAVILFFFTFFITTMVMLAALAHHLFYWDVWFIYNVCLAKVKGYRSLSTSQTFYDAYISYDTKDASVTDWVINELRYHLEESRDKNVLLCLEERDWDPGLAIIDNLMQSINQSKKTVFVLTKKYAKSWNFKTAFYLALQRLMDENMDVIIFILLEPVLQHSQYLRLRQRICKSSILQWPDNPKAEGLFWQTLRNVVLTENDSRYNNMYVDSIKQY
Text: A stable HEK293-Blue-hTLR-8 cell line was purchased from InvivoGen (Cat.#: hkb-htlr8, San Diego, California, USA). These cells were originally designed for studying the stimulation of human TLR8 by monitoring the activation of NF-κB. A SEAP (secreted embryonic alkaline phosphatase) reporter gene was placed under the control of the IFN-β minimal promoter fused to five NF-κB and AP-1-binding sites. The SEAP was induced by activating NF-κB and AP-1 via stimulating HEK-Blue hTLR8 cells with TLR8 ligands. Therefore, the reporter expression was declined by TLR8 antagonist under the stimulation of a ligand, such as R848, for incubation of 20 hrs. The cell culture supernatant SEAP reporter activity was determined using QUANTI-Blue™ kit (Cat.#: rep-qb1, Invivogen, San Diego, Ca, USA) at a wavelength of 640 nm, a detection medium that turns purple or blue in the presence of alkaline phosphatase.
HEK293-Blue-hTLR8 cells were incubated at a density of 250,000-450,000 cells/mL in a volume of 170 µL in a 96-well plate in Dulbecco's Modified Eagle's medium (DMEM) containing 4.5 g/L glucose, 50 U/mL penicillin, […], […], 2 mM L-glutamine, 10% (v/v) heat-inactivated fetal bovine serum with addition of 20 µL test compound in a serial dilution in the presence of final DMSO at 1% and 10 µL of 60uM R848 in above DMEM, perform incubation under 37 °C in a CO2 incubator for 20 hrs. Then 20 µL of the supernatant from each well was incubated with 180 µL Quanti-blue substrate solution at 37°C for 2 hrs and the absorbance was read at 620-655 nm using a spectrophotometer. The signaling pathway that TLR8 activation leads to downstream NF-κB activation has been widely accepted, and therefore similar reporter assay was modified for evaluating TLR8 antagonist.

| SMILES | IC50 |
| --- | --- |
| C[C@@H]1CN(c2ccc(C#N)c3ncccc23)C[C@H](CN2CCN(c3ccc4c(n3)CCNC4)C[C@H](O)C2)O1 (single isomer, unassigned) [Example 35A] | 24 nM |
| C[C@@H]1CN(c2ccc(C#N)c3ncccc23)C[C@H](CN2CCN(c3ccc4c(n3)CCNC4)C[C@@H](O)C2)O1 (single isomer, unassigned) [Example 35B] | 23 nM |
| C[C@@H]1CN(c2ccc(C#N)c3ncccc23)C[C@H](CN2C[C@H]3CN(c4ccc5c(n4)CCNC5)CC[C@@H]32)O1 (single isomer, unassigned) [Example 54] | 22 nM |
| C[C@@H]1CN(c2ccc(C#N)c3ncccc23)C[C@H](CN2C[C@H]3CN(c4ccc5c(n4)CCNC5)CC[C@H]32)O1 (single isomer, unassigned) [Example 55] | 16 nM |
| C[C@@H]1CN(c2ccc(C#N)c3ncccc23)C[C@H](CN2CCN(c3ccc4c(n3)CN[C@H]4C)CC2)O1 (single isomer, unassigned) [Example 63] | 3 nM |
| C[C@@H]1CN(c2ccc(C#N)c3ncccc23)C[C@H](CN2CCN(c3ccc4c(n3)CN[C@@H]4C)CC2)O1 (single isomer, unassigned) [Example 64] | 6 nM |
| C[C@@H]1CN(c2ccc(C#N)c3ncccc23)C[C@H](CN2CCN(c3ccc4c(n3)[C@@H](C)NC4)CC2)O1 (single isomer, unassigned) [Example 65] | 9 nM |
| C[C@@H]1CN(c2ccc(C#N)c3ncccc23)C[C@H](CN2CCN(c3ccc4c(n3)[C@H](C)NC4)CC2)O1 (single isomer, unassigned) [Example 66] | 9 nM |
| C[C@@H]1CN(c2ccc(C#N)c3ncccc23)C[C@H](CN2CCN(c3cnc4c(c3)CN[C@H]4C)CC2)O1 (single isomer, unassigned) [Example 67] | 20 nM |
| C[C@@H]1CN(c2ccc(C#N)c3ncccc23)C[C@H](CN2CCN(c3cnc4c(c3)CN[C@@H]4C)CC2)O1 (single isomer, unassigned) [Example 68] | 16 nM |
| C[C@@H]1Cc2cc(N3CCN(C[C@H]4CN(c5ccc(C#N)c6ncccc56)C[C@@H](C)O4)CC3)ncc2CN1 (single isomer, unassigned) [Example 70] | 4 nM |
| C[C@@H]1CN(c2ccc(C#N)c3ncccc23)C[C@H](CN2CCN(c3cc4c(cn3)CN[C@@H](C)C4)CC2)O1 (single isomer, unassigned) [Example 71] | 4 nM |
| C[C@@H]1CN(c2ccc(C#N)c3ncccc23)C[C@H](CN2CCN(c3cc4c(cn3)[C@H](C)NCC4)CC2)O1 (single isomer, unassigned) [Example 72] | 5 nM |
| C[C@@H]1CN(c2ccc(C#N)c3ncccc23)C[C@H](CN2CCN(c3cc4c(cn3)[C@@H](C)NCC4)CC2)O1 (single isomer, unassigned) [Example 73] | 7 nM |
| C[C@@H]1CN(c2ccc(C#N)c3ncccc23)C[C@H](CN2CCN(c3cc4c(cn3)CCN[C@@H]4C)CC2)O1 (single isomer, unassigned) [Example 74] | 4 nM |
| C[C@@H]1CN(c2ccc(C#N)c3ncccc23)C[C@H](CN2CCN(c3cc4c(cn3)CCN[C@H]4C)CC2)O1 (single isomer, unassigned) [Example 75] | 4 nM |

| SMILES | IC50 |
| --- | --- |
| C[C@@H]1CN(c2ccc(C#N)c3ncccc23)C[C@H](CN2CCN(c3cc4c(cn3)C[C@H](C)NC4)CC2)O1 (single isomer, unassigned) [Example 76] | 5 nM |
| C[C@@H]1Cc2cnc(N3CCN(C[C@H]4CN(c5ccc(C#N)c6ncccc56)C[C@@H](C)O4)CC3)cc2CN1 (single isomer, unassigned) [Example 77] | 7 nM |
| C[C@@H]1CN(c2ccc(C#N)c3nccnc23)C[C@H](CN2CCN(c3ccc4c(n3)CN[C@H]4C)CC2)O1 (single isomer, unassigned) [Example 78] | 2 nM |
| C[C@@H]1CN(c2ccc(C#N)c3nccnc23)C[C@H](CN2CCN(c3ccc4c(n3)CN[C@@H]4C)CC2)O1 (single isomer, unassigned) [Example 79] | 2 nM |
| C[C@@H]1CN(c2ccc(C#N)c3nccnc23)C[C@H](CN2CCN(c3cc4c(cn3)C[C@H](C)NC4)CC2)O1 (single isomer, unassigned) [Example 81] | 3 nM |
| C[C@@H]1Cc2cnc(N3CCN(C[C@H]4CN(c5ccc(C#N)c6nccnc56)C[C@@H](C)O4)CC3)cc2CN1 (single isomer, unassigned) [Example 82] | 3 nM |
| C[C@@H]1Cc2cc(N3CCN(C[C@H]4CN(c5ccc(C#N)c6nccnc56)C[C@@H](C)O4)CC3)ncc2CN1 (single isomer, unassigned) [Example 83] | 2 nM |
| C[C@@H]1CN(c2ccc(C#N)c3nccnc23)C[C@H](CN2CCN(c3cc4c(cn3)CN[C@@H](C)C4)CC2)O1 (single isomer, unassigned) [Example 84] | 2 nM |
| C[C@@H]1CN(c2ccc(C#N)c3nccnc23)C[C@H](CN2CCN(c3cc4c(cn3)[C@H](C)NCC4)CC2)O1 (single isomer, unassigned) [Example 85] | 2 nM |
| C[C@@H]1CN(c2ccc(C#N)c3ncccc23)C[C@H](CN2CC3[C@H](C2)OCCN3c2ccc3c(n2)CCNC3)O1 (stereo in doubt) [Example 53, cis-5-[(2R,6S)-2-methyl-6-[[4-(5,6,7,8-tetrahydro-1,6-naphthyridin-2-yl)-2,3,4a,5,7,7a-hexahydropyrrolo[3,4-b][1,4]oxazin-6-yl]methyl]morpholin-4-yl]quinoline-8-carbonitrile] | 21 nM |
| C[C@@H]1CN(c2ccc(C#N)c3ncccc23)C[C@H](CN2CCN(c3cccc4c3CNC4)CC2)O1 [Example 2, 5-[(2S,6R)-2-[(4-isoindolin-4-ylpiperazin-1-yl)methyl]-6-methyl-morpholin-4-yl] quinoline-8-carbonitrile] | 8 nM |
| C[C@@H]1CN(c2ccc(C#N)c3ncccc23)C[C@H](CN2CCN(c3ccc4c(c3)CNC4)[C@@H](CO)C2)O1 [Example 4, 5-[(2S,6R)-2-[[(3R)-3-(hydroxymethyl)-4-isoindolin-5-yl-piperazin-1-yl]methyl]-6-methyl-morpholin-4-yl]quinoline-8-carbonitrile] | 27 nM |
| C[C@@H]1CN(c2ccc(C#N)c3ncccc23)C[C@H](CN2CCN(c3ccc4c(c3)CCNC4)CC2)O1 [Example 5, 5-[(2R,6S)-2-methyl-6-[[4-(1,2,3,4-tetrahydroisoquinolin-6-yl)piperazin-1-yl]methyl]morpholin-4-yl]quinoline-8-carbonitrile] | 20 nM |
| C[C@@H]1CN(c2ccc(C#N)c3ncccc23)C[C@H](CN2CCN(c3ccc4c(c3)CNC4)CC2)O1 [Example 7, 5-[(2S,6R)-2-[(4-isoindolin-5-ylpiperazin-1-yl)methyl]-6-methyl-morpholin-4-yl] quinoline-8-carbonitrile] | 30 nM |
| C[C@@H]1CN(c2ccc(C#N)c3ncsc23)C[C@H](CN2CCN(c3cnc4c(c3)CNC4)CC2)O1 [Example 8, 7-[(2S,6R)-2-[[4-(6,7-dihydro-5H-pyrrolo[3,4-b]pyridin-3-yl)piperazin-1-yl]methyl]-6-methyl-morpholin-4-yl]-1,3-benzothiazole-4-carbonitrile] | < 3 nM |

Reference: patent publication EP3807270B1, “NOVEL HETEROARYL HETEROCYCLYL COMPOUNDS FOR THE TREATMENT OF AUTOIMMUNE DISEASE” (F. Hoffmann-La Roche AG, priority 2018, dated 2019)
